Assay results reported in ChEMBL document CHEMBL5518218, “Discovery of Novel PD-L1 Small-Molecular Inhibitors with Potent In Vivo Anti-tumor Immune Activity” (J Med Chem, 2024).

Experiments:
[1] = Prodrug conversion in Sprague-Dawley rat assessed as Cmax of (2-(benzo[c][1,2,5]oxadiazol-5-ylmethoxy)-5-chloro-4-((2-fluoro-3'-(3-(4-hydroxypiperidin-1-yl)propoxy)-[1,1'-biphenyl]-3-yl)methoxy)benzyl)-D-serine at 45 mg/kg, po measured upto 24 hrs by LC-MS/MS analysis; assay type: ADME, organism-based; details: in vivo
[2] = Prodrug conversion in Sprague-Dawley rat assessed as AUC (0 to t) of (2-(benzo[c][1,2,5]oxadiazol-5-ylmethoxy)-5-chloro-4-((2-fluoro-3'-(3-(4-hydroxypiperidin-1-yl)propoxy)-[1,1'-biphenyl]-3-yl)methoxy)benzyl)-D-serine at 9 mg/kg, iv measured upto 24 hrs by LC-MS/MS analysis; assay type: ADME, organism-based; details: in vivo
[3] = tested on: CT26; experiment: Antitumor activity against mouse CT26 cells implanted in BALB/c mouse assessed as tumor growth inhibition at 10 mg/kg, ip measured at 8 to 14 days; assay type: functional; details: time 8-14 day, read-out: TGI
[4] = Prodrug conversion in Sprague-Dawley rat assessed as half life of (2-(benzo[c][1,2,5]oxadiazol-5-ylmethoxy)-5-chloro-4-((2-fluoro-3'-(3-(4-hydroxypiperidin-1-yl)propoxy)-[1,1'-biphenyl]-3-yl)methoxy)benzyl)-D-serine at 45 mg/kg measured upto 24 hrs by LC-MS/MS analysis; assay type: ADME, organism-based; details: in vivo, po
[5] = tested on: MC-38; experiment: Antitumor activity against mouse MC38 cells implanted in C57BL/6J mouse assessed as tumor growth inhibition at 5 mg/kg, po measured for 20 days; assay type: functional; details: MC-38, 480 h, time 20 day, read-out: TGI
[6] = Prodrug conversion in C57BL/6 mouse assessed as Tmax of (2-(benzo[c][1,2,5]oxadiazol-5-ylmethoxy)-5-chloro-4-((2-fluoro-3'-(3-(4-hydroxypiperidin-1-yl)propoxy)-[1,1'-biphenyl]-3-yl)methoxy)benzyl)-D-serine at 2 mg/kg, iv measured upto 24 hrs by LC-MS/MS analysis; assay type: ADME, organism-based; details: in vivo
[7] = Prodrug conversion in C57BL/6 mouse assessed as AUC (0 to t) of (2-(benzo[c][1,2,5]oxadiazol-5-ylmethoxy)-5-chloro-4-((2-fluoro-3'-(3-(4-hydroxypiperidin-1-yl)propoxy)-[1,1'-biphenyl]-3-yl)methoxy)benzyl)-D-serine at 2 mg/kg, iv measured upto 24 hrs by LC-MS/MS analysis; assay type: ADME, organism-based; details: in vivo
[8] = target: Programmed cell death protein 1/Programmed cell death 1 ligand 1 (Homo sapiens, UniProt Q9NZQ7); experiment: Inhibition of PD-1/PD-L1 interaction (unknown origin) incubated for 15 min by HTRF assay; assay type: protein-complex assay
Chain of Programmed cell death protein 1/Programmed cell death 1 ligand 1 (Q15116 whole entry): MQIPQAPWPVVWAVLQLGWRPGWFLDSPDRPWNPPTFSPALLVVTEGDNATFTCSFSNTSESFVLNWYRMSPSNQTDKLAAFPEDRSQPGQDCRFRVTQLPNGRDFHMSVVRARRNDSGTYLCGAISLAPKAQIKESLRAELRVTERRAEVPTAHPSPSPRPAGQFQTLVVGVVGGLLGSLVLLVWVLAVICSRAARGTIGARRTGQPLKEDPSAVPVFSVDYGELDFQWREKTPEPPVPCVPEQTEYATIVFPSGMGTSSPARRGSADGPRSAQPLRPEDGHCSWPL
Chain of Programmed cell death protein 1/Programmed cell death 1 ligand 1 (Q9NZQ7 whole entry): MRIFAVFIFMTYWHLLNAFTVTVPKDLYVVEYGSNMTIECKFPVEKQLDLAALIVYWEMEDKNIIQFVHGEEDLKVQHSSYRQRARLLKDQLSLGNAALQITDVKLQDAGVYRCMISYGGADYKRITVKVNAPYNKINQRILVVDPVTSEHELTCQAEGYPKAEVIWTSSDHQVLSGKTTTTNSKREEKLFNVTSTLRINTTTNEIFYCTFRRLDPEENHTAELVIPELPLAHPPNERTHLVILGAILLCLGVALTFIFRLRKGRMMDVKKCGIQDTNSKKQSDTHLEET

[9] = Prodrug conversion in Sprague-Dawley rat assessed as Tmax of (2-(benzo[c][1,2,5]oxadiazol-5-ylmethoxy)-5-chloro-4-((2-fluoro-3'-(3-(4-hydroxypiperidin-1-yl)propoxy)-[1,1'-biphenyl]-3-yl)methoxy)benzyl)-D-serine at 9 mg/kg, iv measured upto 24 hrs by LC-MS/MS analysis; assay type: ADME, organism-based; details: in vivo
[10] = Acute toxicity in mouse assessed as signs of distress at 1000 mg/kg, po administered as single dose for 14 days; assay type: organism-based; details: in vivo, 336 h, time 14 day
[11] = Water solubility of the compound; assay type: physicochemical

## CCOC(=O)[C@@H](CO)NCc1cc(Cl)c(OCc2cccc(-c3cccc(OCCCN4CCC(O)CC4)c3)c2F)cc1OCc1ccc2nonc2c1.Cl.Cl
[1]
  Cmax: 49.8 ng/mL
[2]
  AUCt: 2373.5 ng·h/mL
[3]
  inhibition in vivo at 10 mg/kg: 21.9%
[4]
  t1/2: 4.3 h
[5]
  inhibition in vivo at 5 mg/kg: 49.2%
[6]
  Tmax: 4.8 min
[7]
  AUCt: 531.6 ng·h/mL
[8]
  IC50: 786 nM
[9]
  Tmax: 4.8 min
[10]
  Activity: Non-Toxic
[11]
  solubility: 9.52 µM
